Source: US7109296B2, “Human 5-HT3-C protein” (Ortho-McNeil Pharmaceutical, Inc., priority 1999, dated 2006)
Where a SMILES comes first, the peptide text is derived from it.

Assays:
Format in all cases: cell-based
[1] = target: T1, 5-HT3-C together with nicotinic ACh receptor subunits β1, β2 and β3 (Homo sapiens, UniProt Q8WXA8); test: Two-electrode voltage clamp, oocytes injected with 5-HT3-C together with nicotinic ACh receptor subunits β1, β2 and β3; conditions: >100 μM; 5-HT3-C with β1, β2 and β3 (0.2–0.25 ng); n=5;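 also: oocytes expressing the subunits for 2–14 days, voltage-clamped at −70 mV under continuous ND96 perfusion at room temperature, with water-injected oocytes serving as controls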
T1 construct: Characterization of the Function of Protein Encoded by p5HT3CR in Xenopus oocvtes; expressed in transfected cells; host or cells: Xenopus laevis oocytes injected with cRNA
T1 sequence (Q8WXA8 28-447): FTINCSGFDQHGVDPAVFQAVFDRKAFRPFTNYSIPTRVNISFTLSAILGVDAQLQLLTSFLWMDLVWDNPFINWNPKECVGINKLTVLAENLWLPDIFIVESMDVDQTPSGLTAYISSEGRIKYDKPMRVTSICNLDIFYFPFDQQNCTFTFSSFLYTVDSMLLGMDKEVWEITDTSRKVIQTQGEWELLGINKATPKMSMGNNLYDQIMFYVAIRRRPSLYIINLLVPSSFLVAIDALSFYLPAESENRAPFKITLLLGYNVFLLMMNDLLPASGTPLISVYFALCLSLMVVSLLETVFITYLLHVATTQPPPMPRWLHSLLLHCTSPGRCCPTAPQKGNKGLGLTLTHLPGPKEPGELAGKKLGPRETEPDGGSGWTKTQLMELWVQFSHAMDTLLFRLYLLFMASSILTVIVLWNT

human 5-HT3-C = target: T2, human 5-HT3-C (Homo sapiens, UniProt Q8WXA8); test: Two-electrode voltage clamp, Xenopus oocytes injected with 5-HT3-C cRNA alone; conditions: for sensitivity of oocytes to neuroactive compound: >100 μM, only 5-HT3-C cRNA (33.5 ng), n=5
T2 construct: Characterization of the Function of Protein Encoded by p5HT3CR in Xenopus oocvtes; expressed in transfected cells; host or cells: Xenopus laevis oocytes injected with in vitro transcribed cRNA (pGEM HE)
T2 sequence (Q8WXA8 28-447): T1 sequence (Q8WXA8 28-447)
Experimental: (§1) Characterization of the Function of Protein Encoded by p5HT3CR in Xenopus oocvtes Xenopus laevis oocytes were prepared and injected using standard methods previously described and known in the art (Fraser et al., 1993). Ovarian lobes from adult female Xenopus laevis (Nasco, Fort Atkinson, Wis.) were teased apart, rinsed several times in nominally Ca-free saline containing (in mM): NaCl 82.5, KCl 2.5, MgCl2 1, HEPES 5, adjusted to pH 7.0 with NaOH(OR-2), and gently shaken in OR-2 containing 0.2% collagenase Type 1 (ICN Biomedicals, Aurora, Ohio) for 2–5 hours. When approximately 50% of the follicular layers were removed, Stage V and VI oocytes were selected and rinsed in media consisting of 75% OR-2 and 25% ND-96. The ND-96 contained (in mM): NaCl 100, KCl 2, MgCl2 1, CaCl2 1.8, HEPES 5, Na pyruvate 2.5, gentamicin (50 ug/ml), adjusted to pH 7.0 with NaOH. […] For in vitro transcription, pGEM HE (Liman et al., 1992) containing human 5-HT3-A (Genbank D49394) or 5-HT3-C cDNA was linearized with NheI and transcribed with T7 RNA polymerase (Stratagene) in the presence of the cap analog m7G(5′)ppp(5′)G. The synthesized cRNA was purified with a Sephadex G-50 spin column. […] Control oocytes were injected with 50 nl of water. Oocytes were incubated for 2–14 days in ND-96 before analysis for expression of the human 5-HT3-C. Incubations and collagenase digestion were carried out at room temperature. Injected oocytes were maintained in 48 well cell culture clusters (Costar, Cambridge, Mass.) at 18° C. Whole cell agonist-induced currents were measured 1–14 days after injection with a conventional two-electrode voltage clamp (GeneClamp500, Axon Instruments, Foster City, Calif.) using standard methods previously described and known in the art (Dascal, 1987). The microelectrodes were filled with 3 M KCl, which had resistances of 1 and 2 MΩ. Cells were continuously perfused with ND96 at 10 ml/min at room temperature unless indicated. Membrane voltage was clamped at −70 mV unless indicated.

[2] = target: T3, 5-HT3-C together with nicotinic ACh receptor a6 subunit (Homo sapiens, UniProt Q15825+Q8WXA8); test: Two-electrode voltage clamp, oocytes injected with 5-HT3-C together with nicotinic ACh receptor α6 subunit; conditions: 500 μM; eight days after injection; 5-HT3-C 0.67 ng, a6 1 ng/oocyte
T3 construct: Characterization of the Function of Protein Encoded by p5HT3CR in Xenopus oocvtes; expressed in transfected cells; host or cells: Xenopus laevis oocytes injected with cRNA
T3 sequence (Q15825 26-494, one chain of several): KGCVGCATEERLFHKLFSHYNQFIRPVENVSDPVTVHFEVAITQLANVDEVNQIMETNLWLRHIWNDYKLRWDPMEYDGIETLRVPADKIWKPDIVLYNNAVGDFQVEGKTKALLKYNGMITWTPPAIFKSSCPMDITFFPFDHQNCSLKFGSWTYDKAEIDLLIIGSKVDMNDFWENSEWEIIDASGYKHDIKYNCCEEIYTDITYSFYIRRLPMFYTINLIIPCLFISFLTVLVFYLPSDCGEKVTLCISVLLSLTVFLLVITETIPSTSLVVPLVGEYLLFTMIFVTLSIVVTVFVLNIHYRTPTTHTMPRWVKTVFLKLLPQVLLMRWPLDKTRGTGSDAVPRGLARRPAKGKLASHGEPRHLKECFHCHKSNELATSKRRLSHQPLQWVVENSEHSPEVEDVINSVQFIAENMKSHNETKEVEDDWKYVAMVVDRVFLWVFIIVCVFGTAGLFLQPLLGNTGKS
Experimental: Characterization of the Function of Protein Encoded by p5HT3CR in Xenopus oocvtes Xenopus laevis oocytes were prepared and injected using standard methods previously described and known in the art (Fraser et al., 1993). Ovarian lobes from adult female Xenopus laevis (Nasco, Fort Atkinson, Wis.) were teased apart, rinsed several times in nominally Ca-free saline containing (in mM): NaCl 82.5, KCl 2.5, MgCl2 1, HEPES 5, adjusted to pH 7.0 with NaOH(OR-2), and gently shaken in OR-2 containing 0.2% collagenase Type 1 (ICN Biomedicals, Aurora, Ohio) for 2–5 hours. When approximately 50% of the follicular layers were removed, Stage V and VI oocytes were selected and rinsed in media consisting of 75% OR-2 and 25% ND-96. The ND-96 contained (in mM): NaCl 100, KCl 2, MgCl2 1, CaCl2 1.8, HEPES 5, Na pyruvate 2.5, gentamicin (50 ug/ml), adjusted to pH 7.0 with NaOH. […] For in vitro transcription, pGEM HE (Liman et al., 1992) containing human 5-HT3-A (Genbank D49394) or 5-HT3-C cDNA was linearized with NheI and transcribed with T7 RNA polymerase (Stratagene) in the presence of the cap analog m7G(5′)ppp(5′)G. The synthesized cRNA was purified with a Sephadex G-50 spin column. Oocytes were injected with 50 nl of the human serotonin 5-HT3-A receptor with or without the 5-HT3-C RNA (0.02 and 0.002–0.2 ng each) or other channel or receptor subunit. Control oocytes were injected with 50 nl of water. Oocytes were incubated for 2–14 days in ND-96 before analysis for expression of the human 5-HT3-C. Incubations and collagenase digestion were carried out at room temperature. Injected oocytes were maintained in 48 well cell culture clusters (Costar, Cambridge, Mass.) at 18° C. Whole cell agonist-induced currents were measured 1–14 days after injection with a conventional two-electrode voltage clamp (GeneClamp500, Axon Instruments, Foster City, Calif.) using standard methods previously described and known in the art (Dascal, 1987). The microelectrodes were filled with 3 M KCl, which had resistances of 1 and 2 MΩ. […]

5-HT3-B and 5-HT3-C = target: T4, 5-HT3-B and 5-HT3-C (Homo sapiens, UniProt O95264+Q8WXA8); test: Two-electrode voltage clamp, oocytes co-injected with 5-HT3-B and 5-HT3-C; conditions: 100 μM; 5-HT3-B 3.3 ng, 5-HT3-C 3.35 ng/oocyte
T4 construct: Characterization of the Function of Protein Encoded by p5HT3CR in Xenopus oocvtes; expressed in transfected cells; host or cells: Xenopus laevis oocytes co-injected with cRNAs
T4 sequence (O95264 22-441): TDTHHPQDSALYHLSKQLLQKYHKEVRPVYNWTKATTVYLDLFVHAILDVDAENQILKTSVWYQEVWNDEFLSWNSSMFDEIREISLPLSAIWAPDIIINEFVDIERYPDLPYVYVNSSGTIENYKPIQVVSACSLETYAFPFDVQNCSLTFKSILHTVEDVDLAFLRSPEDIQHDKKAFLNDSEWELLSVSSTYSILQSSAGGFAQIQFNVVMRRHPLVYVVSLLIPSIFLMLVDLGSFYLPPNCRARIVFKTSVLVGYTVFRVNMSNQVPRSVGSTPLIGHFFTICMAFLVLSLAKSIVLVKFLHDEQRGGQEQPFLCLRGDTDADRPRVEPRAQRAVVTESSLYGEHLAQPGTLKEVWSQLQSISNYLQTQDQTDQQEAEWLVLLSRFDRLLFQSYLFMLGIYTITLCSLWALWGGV
T4 sequence (Q8WXA8 28-447): T1 sequence (Q8WXA8 28-447)
Experimental: as §1

[3] = 10 μM, oocytes injected with 33.3 ng 5-HT3-C cRNA

Row | Structure (SMILES) | sensitivity of oocytes to neuroactive compound [1] | sensitivity of oocytes to neuroactive compound (human 5-HT3-C) | other results
1 | NC/C=C\C(=O)O [cis-4 aminocrotonic acid] | insensitive | insensitive | 
2 | NCCc1c[nH]c2ccccc12 [tryptamine] | insensitive | insensitive | 
3 | CC(=O)OCC[N+](C)(C)C [ACh] | insensitive | insensitive | responsiveness of oocytes to agonist [2]: not responsive; effect of agonist (agonist-induced current) (human 5-HT3-C; [3]): No effect; effect of agonist (agonist-induced current) (human 5-HT3-C; 500 μM, oocytes injected with 33.5 ng 5-HT3-C): No effect
4 | COc1ccc2[nH]cc(CCNC(C)=O)c2c1 [melatonin] | insensitive | insensitive | 
5 | CC(=O)N[C@@H](CS)C(=O)O [N-acetyl-L-cysteine] | insensitive | insensitive | 
6 | N[C@@H](CCC(=O)O)C(=O)O [glutamate] | insensitive | insensitive | 
7 | CNCCc1c[nH]c2ccc(O)cc12 [N-ω-methyl-5-HT] |  |  | responsiveness of oocytes to agonist (5-HT3-B and 5-HT3-C): unresponsive
8 | NCCc1c[nH]cn1 [histamine] | insensitive | insensitive | effect of agonist (agonist-induced current) (human 5-HT3-C; [3]): No effect
9 | NCCS(=O)(=O)O [taurine] | insensitive | insensitive | 
10 | O=C(O)Cc1c[nH]c2ccc(O)cc12 [5-hydroxyindolacetic acid] | insensitive | insensitive | 
11 | O=C(O)c1cc2cc(O)ccc2[nH]1 [5-hydroxyindole 2-carboxylic acid] | insensitive | insensitive | 
12 | N=C(N)NCCCCN [agmatine] | insensitive | insensitive | 
13 | COc1cc2c(CCNC(C)=O)c[nH]c2cc1O [6-hydroxymelatonin] | insensitive | insensitive | 
14 | CC(=O)NCCc1c[nH]c2ccc(O)cc12 [N-acetyl serotonin] | insensitive | insensitive | 
15 | NCCC(=O)O [β-alanine] | insensitive | insensitive | 
16 | NC[C@H](O)c1ccc(O)c(O)c1 [norepinephrine] | insensitive | insensitive | 
17 | NCCCC(=O)O [GABA] | insensitive | insensitive | effect of agonist (agonist-induced current) (human 5-HT3-C; >30 μM, oocytes injected with 33.3 ng 5-HT3-C cRNA): No effect
18 | N[C@@H]1CONC1=O [d-cycloserine] | insensitive | insensitive | 
19 | NCCc1ccc(O)cc1 [tyramine] | insensitive | insensitive | 
20 | N[C@H](CC(=O)O)C(=O)O [L-aspartate, L- and D-aspartate] | insensitive | insensitive | 
21 | NCC(=O)O [glycine] | insensitive | insensitive | effect of agonist (agonist-induced current) (human 5-HT3-C; 100 M, oocytes injected with 33.3 ng 5-HT3-C cRNA): No effect
22 | N[C@@H](Cc1c[nH]c2ccccc12)C(=O)O [tryptophan] | insensitive | insensitive | 
23 | NC(=O)Cc1c[nH]c2ccc(O)cc12 [5-hydroxyindole 3-acetamide] | insensitive | insensitive | 
24 | NC(=O)[C@@H](N)Cc1c[nH]c2ccccc12 [tryptophanamide] | insensitive | insensitive | 
25 | NCCc1ccccc1 [β-phenylethylamine] | insensitive | insensitive | 
26 | NCC(O)c1ccc(O)cc1 (centres unmarked) [octopamine] | insensitive | insensitive | 
27 | NCCc1ccc(O)c(O)c1 [DA, dopamine] | insensitive | insensitive | effect of agonist (agonist-induced current) (human 5-HT3-C; 100 μM, oocytes injected with 33.5 ng 5-HT3-C): No effect
28 | CC(=O)N[C@@H](CC(=O)O)C(=O)N[C@@H](CCC(=O)O)C(=O)O [acetyl-aspartyl-L-glutamic acid] (Ac-Asp-Glu-OH) | insensitive | insensitive | 
